Assay: MALDI-TOF screening of Ni^2+ dependent hydrolysis in a combinatorial peptide library
Type: physicochemical
Conditions: Ni^2+ 2 mM, pH 8.2, 10 mM Tris, score=24/tm
Outline: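 The screen used 1 mM peptide mixtures in 10 mM Tris, pH 8.2, with 2 mM Ni2+ at two temperatures, 37 °C and 45 °C. Product appearance and substrate decline were monitored visually by MALDI-TOF over 8 h. Scores for X and Z were then summed by row and column to rank substitutions.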

[1] = CH3CO-Gly-Ala-Thr-X-His-Z-Lys-Phe-Leu-NH2 library, 37° C.
[2] = CH3CO-Gly-Ala-Thr-X-His-Z-Lys-Phe-Leu-NH2 library, 45° C.
[3] = CH3CO-Gly-Ala-Ser-X-His-Z-Lys-Phe-Leu-NH2 library, 37° C.
[4] = CH3CO-Gly-Ala-Ser-X-His-Z-Lys-Phe-Leu-NH2 library, 45° C.

Substance | hydrolysis score from MALDI-TOF screening [1] | hydrolysis score from MALDI-TOF screening [2] | hydrolysis score from MALDI-TOF screening [3] | hydrolysis score from MALDI-TOF screening [4]
Ac-GATWHDKFL-NH2 [TWHD] | 0 (a score of 0 if no trace of the product of hydrolysis was seen after 8 hours of incubation) | 0 (a score of 0 if no trace of the product of hydrolysis was seen after 8 hours of incubation) | – | –
Ac-GASFHQKFL-NH2 [SFHQ] | – | – | 0 (a score of 0 if no trace of the product of hydrolysis was seen after 8 hours of incubation) | 0 (a score of 0 if no trace of the product of hydrolysis was seen after 8 hours of incubation)
Ac-GATKHPKFL-NH2 [TKHP] | 0 (a score of 0 if no trace of the product of hydrolysis was seen after 8 hours of incubation) | 0 (a score of 0 if no trace of the product of hydrolysis was seen after 8 hours of incubation) | – | –
Ac-GASVHHKFL-NH2 [SVHH] | – | – | 3 (a score of 3 for detection at 8 hours) | 3 (a score of 3 for detection at 8 hours)
Ac-GASVHVKFL-NH2 [SVHV] | – | – | 0 (a score of 0 if no trace of the product of hydrolysis was seen after 8 hours of incubation) | 3 (a score of 3 for detection at 8 hours)
Ac-GATHHTKFL-NH2 [THHT] | 0 (a score of 0 if no trace of the product of hydrolysis was seen after 8 hours of incubation) | 4 (a score of 4 for detection at 6 hours) | – | –
Ac-GASQHKKFL-NH2 [SQHK] | – | – | 4 (a score of 4 for detection at 6 hours) | 6 (a score of 6 for detection at 4 hours)
Ac-GATHHFKFL-NH2 [THHF] | 0 (a score of 0 if no trace of the product of hydrolysis was seen after 8 hours of incubation) | 6 (a score of 6 for detection at 4 hours) | – | –
Ac-GASGHMKFL-NH2 [SGHM] | – | – | 0 (a score of 0 if no trace of the product of hydrolysis was seen after 8 hours of incubation) | 0 (a score of 0 if no trace of the product of hydrolysis was seen after 8 hours of incubation)
Ac-GASPHSKFL-NH2 [SPHS] | – | – | 0 (a score of 0 if no trace of the product of hydrolysis was seen after 8 hours of incubation) | 0 (a score of 0 if no trace of the product of hydrolysis was seen after 8 hours of incubation)
Ac-GASYHDKFL-NH2 [SYHD] | – | – | 0 (a score of 0 if no trace of the product of hydrolysis was seen after 8 hours of incubation) | 0 (a score of 0 if no trace of the product of hydrolysis was seen after 8 hours of incubation)
Ac-GASMHWKFL-NH2 [SMHW] | – | – | 4 (a score of 4 for detection at 6 hours) | 6 (a score of 6 for detection at 4 hours)
Ac-GATMHAKFL-NH2 [TMHA] | 0 (a score of 0 if no trace of the product of hydrolysis was seen after 8 hours of incubation) | 0 (a score of 0 if no trace of the product of hydrolysis was seen after 8 hours of incubation) | – | –
Ac-GASRHNKFL-NH2 [SRHN] | – | – | 0 (a score of 0 if no trace of the product of hydrolysis was seen after 8 hours of incubation) | 0 (a score of 0 if no trace of the product of hydrolysis was seen after 8 hours of incubation)
Ac-GATMHPKFL-NH2 [TMHP] | 0 (a score of 0 if no trace of the product of hydrolysis was seen after 8 hours of incubation) | 0 (a score of 0 if no trace of the product of hydrolysis was seen after 8 hours of incubation) | – | –
Ac-GASQHWKFL-NH2 [SQHW] | – | – | 6 (a score of 6 for detection at 4 hours) | 6 (a score of 6 for detection at 4 hours)
Ac-GATWHWKFL-NH2 [TWHW] | 3 (a score of 3 for detection at 8 hours) | 4 (a score of 4 for detection at 6 hours) | – | –
Ac-GASGHAKFL-NH2 [SGHA] | – | – | 0 (a score of 0 if no trace of the product of hydrolysis was seen after 8 hours of incubation) | 0 (a score of 0 if no trace of the product of hydrolysis was seen after 8 hours of incubation)
Ac-GATNHPKFL-NH2 [TNHP] | 0 (a score of 0 if no trace of the product of hydrolysis was seen after 8 hours of incubation) | 0 (a score of 0 if no trace of the product of hydrolysis was seen after 8 hours of incubation) | – | –
Ac-GATNHHKFL-NH2 [TNHH] | 0 (a score of 0 if no trace of the product of hydrolysis was seen after 8 hours of incubation) | 0 (a score of 0 if no trace of the product of hydrolysis was seen after 8 hours of incubation) | – | –

Substance | hydrolysis score from MALDI-TOF screening [1] | hydrolysis score from MALDI-TOF screening [2] | hydrolysis score from MALDI-TOF screening [3] | hydrolysis score from MALDI-TOF screening [4]
Ac-GASQHNKFL-NH2 [SQHN] | – | – | 0 (a score of 0 if no trace of the product of hydrolysis was seen after 8 hours of incubation) | 0 (a score of 0 if no trace of the product of hydrolysis was seen after 8 hours of incubation)
Ac-GATSHEKFL-NH2 [TSHE] | 0 (a score of 0 if no trace of the product of hydrolysis was seen after 8 hours of incubation) | 0 (a score of 0 if no trace of the product of hydrolysis was seen after 8 hours of incubation) | – | –
Ac-GASKHEKFL-NH2 [SKHE] | – | – | 0 (a score of 0 if no trace of the product of hydrolysis was seen after 8 hours of incubation) | 3 (a score of 3 for detection at 8 hours)
Ac-GASRHMKFL-NH2 [SRHM] | – | – | 3 (a score of 3 for detection at 8 hours) | 3 (a score of 3 for detection at 8 hours)
Ac-GATVHIKFL-NH2 [TVHI] | 0 (a score of 0 if no trace of the product of hydrolysis was seen after 8 hours of incubation) | 0 (a score of 0 if no trace of the product of hydrolysis was seen after 8 hours of incubation) | – | –
Ac-GATLHEKFL-NH2 [TLHE] | 0 (a score of 0 if no trace of the product of hydrolysis was seen after 8 hours of incubation) | 0 (a score of 0 if no trace of the product of hydrolysis was seen after 8 hours of incubation) | – | –
Ac-GASWHMKFL-NH2 [SWHM] | – | – | 0 (a score of 0 if no trace of the product of hydrolysis was seen after 8 hours of incubation) | 3 (a score of 3 for detection at 8 hours)
Ac-GATGHMKFL-NH2 [TGHM] | 0 (a score of 0 if no trace of the product of hydrolysis was seen after 8 hours of incubation) | 0 (a score of 0 if no trace of the product of hydrolysis was seen after 8 hours of incubation) | – | –
Ac-GASAHWKFL-NH2 [SAHW] | – | – | 4 (a score of 4 for detection at 6 hours) | 6 (a score of 6 for detection at 4 hours)
Ac-GASQHAKFL-NH2 [SQHA] | – | – | 0 (a score of 0 if no trace of the product of hydrolysis was seen after 8 hours of incubation) | 3 (a score of 3 for detection at 8 hours)
Ac-GATMHGKFL-NH2 [TMHG] | 0 (a score of 0 if no trace of the product of hydrolysis was seen after 8 hours of incubation) | 0 (a score of 0 if no trace of the product of hydrolysis was seen after 8 hours of incubation) | – | –
Ac-GATVHRKFL-NH2 [TVHR] | 0 (a score of 0 if no trace of the product of hydrolysis was seen after 8 hours of incubation) | 3 (a score of 3 for detection at 8 hours) | – | –
Ac-GATRHFKFL-NH2 [TRHF] | 3 (a score of 3 for detection at 8 hours) | 4 (a score of 4 for detection at 6 hours) | – | –
Ac-GASKHGKFL-NH2 [SKHG] | – | – | 0 (a score of 0 if no trace of the product of hydrolysis was seen after 8 hours of incubation) | 0 (a score of 0 if no trace of the product of hydrolysis was seen after 8 hours of incubation)
Ac-GASIHDKFL-NH2 [SIHD] | – | – | 0 (a score of 0 if no trace of the product of hydrolysis was seen after 8 hours of incubation) | 0 (a score of 0 if no trace of the product of hydrolysis was seen after 8 hours of incubation)
Ac-GASNHNKFL-NH2 [SNHN] | – | – | 0 (a score of 0 if no trace of the product of hydrolysis was seen after 8 hours of incubation) | 0 (a score of 0 if no trace of the product of hydrolysis was seen after 8 hours of incubation)
Ac-GATLHHKFL-NH2 [TLHH] | 0 (a score of 0 if no trace of the product of hydrolysis was seen after 8 hours of incubation) | 0 (a score of 0 if no trace of the product of hydrolysis was seen after 8 hours of incubation) | – | –
Ac-GASTHNKFL-NH2 [STHN] | – | – | 0 (a score of 0 if no trace of the product of hydrolysis was seen after 8 hours of incubation) | 0 (a score of 0 if no trace of the product of hydrolysis was seen after 8 hours of incubation)
Ac-GATYHPKFL-NH2 [TYHP] | 0 (a score of 0 if no trace of the product of hydrolysis was seen after 8 hours of incubation) | 0 (a score of 0 if no trace of the product of hydrolysis was seen after 8 hours of incubation) | – | –

From US8969516B2, “Method of hydrolysis of peptide bond” (priority 2006, dated 2015)
